# Data reported in ChEMBL document CHEMBL5131378, “Kinases as Potential Therapeutic Targets for Anti-coronaviral Therapy” (J Med Chem, 2022).
# pEC50, pIC50: −log10 of the molar value.
# What was measured:
# [1] = test system: Middle East respiratory syndrome-related coronavirus; test: Antiviral activity against MERS-CoV; type: functional, organism-based
# [2] = test system: SARS-CoV-2; test: microbe, parasite or virus in culture; details: Severe acute respiratory syndrome coronavirus 2
# [3] = test system: SARS-CoV-2; type: functional, organism-based, Vero E6; details: Severe acute respiratory syndrome coronavirus 2, Vero C1008, 72 h
# [4] = test system: Middle East respiratory syndrome-related coronavirus; test: Antiviral activity against MERS-CoV infected in 1 hr pretreated human Huh-7 cells assessed as inhibition of viral growth at 10 uM measured after 48 hrs by plaque reduction assay relative to control; type: functional; details: time 49 hrs
# [5] = test system: SARS-CoV-2; type: functional, Severe acute respiratory syndrome coronavirus 2, Vero E6; details: time 72 hrs
# [6] = test system: Murine coronavirus; test: Antiviral activity against mCoV; type: functional, organism-based
# [7] = test system: Human coronavirus 229E; test: Antiviral activity against hCoV-229e at 4 uM assessed as reduction of viral RNA relative to control; type: functional; set-up: scale not given: the % may be the effect or the level left
# [8] = biological target: Replicase polyprotein 1ab (Severe acute respiratory syndrome coronavirus 2, UniProt P0DTD1); test: Inhibition of SARS-CoV-2 M-protease
# [9] = test system: SARS-CoV; test: Antiviral activity against SARS-CoV in 24 hrs pretreated primary human liver spheroids assessed as reduction in viral load at 400 to 500 nM measured after 48 hrs; type: functional, Severe acute respiratory syndrome-related coronavirus; set-up: scale not given: the % may be the effect or the level left; details: dose 400-500 nM, time 72 hrs
# [10] = test system: SARS-CoV-2; type: functional, organism-based, Vero E6; details: Severe acute respiratory syndrome coronavirus 2, Vero C1008
# [11] = test system: SARS-CoV-2; type: functional, organism-based; details: Severe acute respiratory syndrome coronavirus 2, A549-ACE2
# [12] = in vitro; details: human, Huh-7 cells
# [13] = test system: Middle East respiratory syndrome-related coronavirus; test: microbe, parasite or virus in culture; details: Huh-7, 72 h
compound,measurement,setting,value
CCc1nc(C(N)=O)c(Nc2ccc(N3CCC(N4CCN(C)CC4)CC3)c(OC)c2)nc1NC1CCOCC1 [GILTERITINIB],pIC50,[1],6.09
same,pIC50,[2],6.09
NC(=O)N1CCC(CC(=O)N2CCC([C@H]3c4ncc(Br)cc4CCc4cc(Cl)cc(Br)c43)CC2)CC1 [LONAFARNIB],pIC50,[3],5.30
CNS(=O)(=O)Nc1nccc(Cc2c(C)c3ccc(Oc4ncccn4)cc3oc2=O)c1F [AVUTOMETINIB],pIC50,[3],6.22
CCCCCCCCCCCCCCCCOP(=O)([O-])OCC[N+](C)(C)C [MILTEFOSINE],inhibition at 10 µM,[4],28%
CCN1CCN(Cc2ccc(Nc3ncc(F)c(-c4cc(F)c5nc(C)n(C(C)C)c5c4)n3)nc2)CC1 [ABEMACICLIB],pEC50,[3],5.67
same,Activity,[5],60%
CC(C)Cn1ncc2cc(Oc3ccc(F)cc3F)c(C(=O)NCCN(C)C)cc21 [ARRY-797],pIC50,[1],6.04
C=CC(=O)Nc1cc(Nc2nccc(-c3cn(C)c4ccccc34)n2)c(OC)cc1N(C)CCN(C)C [OSIMERTINIB],pIC50,[3],5.40
COC[C@H]1OC(=O)c2coc3c2[C@@]1(C)C1=C(C3=O)[C@@H]2CCC(=O)[C@@]2(C)C[C@H]1OC(C)=O [WORTMANNIN],inhibition at 10 µM,[4],40%
CC(C)(C)Cn1c(N)nc2ccc(-c3[nH]c(C(C)(C)C)nc3-c3ccc(F)cc3)nc21 [RALIMETINIB],pIC50,[1],6.06
CC(C)=CCC[C@](C)(O)[C@H]1CC[C@]2(C)[C@@H]1[C@H](O)C[C@@H]1[C@@]3(C)CC[C@H](O)C(C)(C)[C@@H]3[C@@H](O[C@@H]3O[C@H](CO)[C@@H](O)[C@H](O)[C@H]3O[C@@H]3O[C@H](CO)[C@@H](O)[C@H](O)[C@H]3O)C[C@]12C [GINSENOSIDE RF],pIC50,[6],5.00
C[S+]([O-])c1ccc(-c2nc(-c3ccc(F)cc3)c(-c3ccncc3)[nH]2)cc1 (configuration not stated) [SB-203580],Activity,[7],60%
CO[C@H]1C[C@@H]2CC[C@@H](C)[C@@](O)(O2)C(=O)C(=O)N2CCCC[C@H]2C(=O)O[C@H]([C@H](C)C[C@@H]2CC[C@@H](OCCO)[C@H](OC)C2)CC(=O)[C@H](C)/C=C(\C)[C@@H](O)[C@@H](OC)C(=O)[C@H](C)C[C@H](C)/C=C/C=C/C=C/1C [EVEROLIMUS],inhibition at 10 µM,[4],56%
O=C(O)c1ccc2c(c1)nc(Nc1cccc(Cl)c1)c1ccncc12 [SILMITASERTIB],pIC50,[2],5.89
O=C1Cc2c([nH]c3ccc([N+](=O)[O-])cc23)-c2ccccc2N1 [ALSTERPAULLONE],pIC50,[8],5.82
CCS(=O)(=O)N1CC(CC#N)(n2cc(-c3ncnc4[nH]ccc34)cn2)C1 [BARICITINIB],Activity,[9],30%
CCc1cnn2c(NCc3ccc[n+]([O-])c3)cc(N3CCCC[C@H]3CCO)nc12 [DINACICLIB],pIC50,[10],6.57
same,pIC50,[11],7.49
CN1CCN(CCOc2cc(OC3CCOCC3)c3c(Nc4c(Cl)ccc5c4OCO5)ncnc3c2)CC1 [SARACATINIB],CC50,[12],> 50000 nM
same,pEC50,[13],5.54
O=C1Cc2c([nH]c3ccc(Br)cc23)-c2ccccc2N1 [KENPAULLONE],pIC50,[8],5.82
CO[C@H]1C[C@@H]2CC[C@@H](C)[C@@](O)(O2)C(=O)C(=O)N2CCCC[C@H]2C(=O)O[C@H]([C@H](C)C[C@@H]2CC[C@@H](O)[C@H](OC)C2)CC(=O)[C@H](C)/C=C(\C)[C@@H](O)[C@@H](OC)C(=O)[C@H](C)C[C@H](C)/C=C/C=C/C=C/1C [SIROLIMUS],inhibition at 10 µM,[4],40%
Cn1nc(C(C)(C)C)cc1NC(=O)Nc1ccc(Oc2ccncc2)cc1,pIC50,[1],5.33
COc1ncc(-c2ccc3nccc(-c4ccnnc4)c3c2)cc1NS(=O)(=O)c1ccc(F)cc1F [OMIPALISIB],pIC50,[3],7.85
Cc1cccc(/C=N/Nc2cc(N3CCOCC3)nc(OCCc3ccccn3)n2)c1 [APILIMOD],pIC50,[10],> 7.10
same,pIC50,[11],8.15
